Tested on: tonic extensor seizure
Test: maximal electroshock test (MES), block of tonic extensor seizure in mice
Assay type: in vivo, male albino mice of the Swiss Webster strain
Method: The compounds of formula (I) are useful as anticonvulsant agents. The anticonvulsant activity of the subject compounds was determined using a standard "maximal electroshock test" (MES). In this test, activity is indicated by a block of the tonic extensor seizure caused by application of an electric shock to mice via corneal electrodes, as described by Swinyard et al. in J. Pharmacol. Exptl. Therap. 106, 319 (1952). A more recent description of current anticonvulsant drug screening is given in Swinyard et al. in Epilepsia 19, 409 (1978). Non-fasted male albino mice of the Swiss Webster strain (Royal-Hart Laboratories, New Hampton, N.Y.) weighing 18-24 grams were used in this test. Six to eight groups of ten mice each were used per ED50 determination. The test compounds were administered as aqueous solutions or suspensions prepared with Tween 80 and water. Testing was conducted at 30 minutes following intraperitoneal injection and at 60 minutes following oral administration of the test compound. A group of ten mice injected with saline 10 ml/kg i.p. and tested 30 minutes later served as controls. ED50 's were calculated using a computerized probit analysis procedure.

COc1ccc(CCOS(N)(=O)=O)cc1OC [Example 3, 3,4-Dimethoxyphenethyl sulfamate]
MES Test % Inhibition (500 mg/kg i.p. in 30 min): 30%

NS(=O)(=O)OCCc1ccccc1 [Example 1b, Phenethylsulfamate]
MES Test % Inhibition (100 mg/kg, 30 min i.p.): 90% | MES Test % Inhibition (200 mg/kg, 60 min p.o.): 100%

NS(=O)(=O)OCCc1cccc([N+](=O)[O-])c1 [Example 6, 3-Nitrophenethylsulfamate]
MES Test % Inhibition (100 mg/kg, 30 min i.p.): 80% | MES Test % Inhibition (200 mg/kg, 60 min p.o.): 40%

Cc1ccccc1CCOS(N)(=O)=O [Example 5, 2-Methylphenethyl sulfamate]
MES Test % Inhibition (100 mg/kg, 30 min i.p.): 90% | MES Test % Inhibition (200 mg/kg, 60 min p.o.): 70%

NS(=O)(=O)OCCc1cccc(C(F)(F)F)c1 [Example 2, 3-(Trifluoromethyl)phenethylsulfamate]
MES Test % Inhibition (100 mg/kg, 30 min i.p.): 70% | MES Test % Inhibition (200 mg/kg, 60 min p.o.): 100%

— US4792569A, “Anticonvulsant phenethyl sulfamates” (McNeilab, Inc., priority 1987, dated 1988)
